pIC50: −log10 of the molar value.
Target: T1, Protein Mdm4 (Homo sapiens, UniProt O15151)
T1 sequence (O15151 whole entry): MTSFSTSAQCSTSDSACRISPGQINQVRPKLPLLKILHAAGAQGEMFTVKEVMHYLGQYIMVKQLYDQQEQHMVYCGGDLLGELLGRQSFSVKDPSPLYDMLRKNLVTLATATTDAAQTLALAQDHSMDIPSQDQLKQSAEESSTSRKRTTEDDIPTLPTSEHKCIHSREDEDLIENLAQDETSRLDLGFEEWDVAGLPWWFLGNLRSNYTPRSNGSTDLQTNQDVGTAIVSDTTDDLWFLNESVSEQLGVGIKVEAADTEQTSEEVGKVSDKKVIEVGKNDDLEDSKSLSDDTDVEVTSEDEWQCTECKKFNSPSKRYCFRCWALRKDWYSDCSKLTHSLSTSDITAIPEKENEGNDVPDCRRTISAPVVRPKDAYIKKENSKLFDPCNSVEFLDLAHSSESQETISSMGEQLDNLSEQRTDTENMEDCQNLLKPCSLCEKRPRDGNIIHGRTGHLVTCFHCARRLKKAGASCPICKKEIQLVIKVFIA
Experiment: Mdm2-MdmX interaction inhibitors, dose response, luminescence detection (AID 504593)

- pIC50: 5.17
SMILES: Cc1cc(N=NC(C)c2ccccc2O)nc(-c2ccccc2O)n1 (stereo unspecified)

Source: BindingDB's records for doi:10.7270/Q2PG1Q6D (Burnham Center For Chemical Genomics, 2011)
